Patent publication US10144742B2 (Millennium Pharmaceuticals, Inc., priority 2014, dated 2018)

How the values were obtained:
PC3 cells = assay: PC3 growth inhibition (Cell-titer glo, 72 hours); assay type: cell-based; conditions: Homo sapiens, PC-3; compound concentration 1.667 μM; PC3 cells, 72 hours, Cell-titer glo; read-out: Percent Inhibition (PC3 growth inhibition)
How it was run: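 Compounds in AIM serum-free medium were applied for 72 h at 37 °C, 5% CO2 to PC3 cells plated overnight from RPMI1640 culture. Luminescence after 10 min CellTiter-Glo, normalised to DMSO, gave % viability at 1 μM or 1.667 μM, or GI50/LD50.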

hNAMPT protein = hNAMPT protein (Homo sapiens (Human), UniProt P43490); assay: NAMPT enzyme assay (TR-FRET/HTRF, BodiPY ligand, anti 6His-Tb); assay type: binding; conditions: for inhibition at 1 µM: NAMPT inhibition at compound concentration 1 μM; for IC50: NAMPT inhibition, IC50 range class, read-out: IC50
How it was run: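 Compound or DMSO was incubated for 1 h at room temperature, protected from light, with BodiPY ligand and hNAMPT labelled by terbium anti-6His antibody. The 520 nm to 486 nm emission ratio after 320 nm excitation gave inhibition versus vehicle, from which concentration-response curves yielded IC50.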

Chain of hNAMPT protein (P43490 whole entry): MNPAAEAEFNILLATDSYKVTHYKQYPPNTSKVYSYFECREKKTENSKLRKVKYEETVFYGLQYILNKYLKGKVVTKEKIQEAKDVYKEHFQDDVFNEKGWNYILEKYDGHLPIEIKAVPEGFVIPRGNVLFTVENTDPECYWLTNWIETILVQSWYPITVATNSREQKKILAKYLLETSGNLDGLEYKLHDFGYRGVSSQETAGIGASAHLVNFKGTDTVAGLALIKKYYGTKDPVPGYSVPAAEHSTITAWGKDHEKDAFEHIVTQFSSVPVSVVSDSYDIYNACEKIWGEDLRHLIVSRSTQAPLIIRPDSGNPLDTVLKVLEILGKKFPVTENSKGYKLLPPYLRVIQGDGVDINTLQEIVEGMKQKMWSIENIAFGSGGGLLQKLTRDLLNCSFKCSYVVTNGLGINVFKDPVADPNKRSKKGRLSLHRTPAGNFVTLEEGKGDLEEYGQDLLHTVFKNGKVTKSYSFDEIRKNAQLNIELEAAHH

| Compound | inhibition at 1.667 µM (PC3 cells) [%] | inhibition at 1 µM (hNAMPT protein; read-out: Percent Inhibition) [%] | IC50 (hNAMPT protein) [nM] | inhibition at 0.333 µM (hNAMPT protein; NAMPT inhibition at compound concentration 0.333 μM (data at 1 uM not available due to solubility limitations), read-out: Percent Inhibition) [%] |
| --- | --- | --- | --- | --- |
| Nc1ccc(CCCNC(=O)c2ccc3nc(-c4ccc(F)cc4)c(-c4ccc(F)cc4)nc3c2)cn1 [Compound I-419, N-[3-(6-aminopyridin-3-yl)propyl]-2,3-bis(4-fluorophenyl)quinoxaline-6-carboxamide] | 3 | 52 | 500 to 1000 |  |
| O=C(NCCCc1ncc[nH]1)c1ccc2nc(OCCc3ccccc3)c(-c3ccc(F)cc3)nc2c1 [Compound I-420, 3-(4-fluorophenyl)-N-[3-(1H-imidazol-2-yl)propyl]-2-(2-phenylethoxy)quinoxaline-6-carboxamide] | 2 | 97 | < 100 |  |
| CC(C)Oc1nc2ccc(C(=O)NCCCc3ncc[nH]3)cc2nc1-c1cccc(SC(F)(F)F)c1 [Compound I-421, N-[3-(1H-imidazol-2-yl)propyl]-2-isopropoxy-3-{3-[(trifluoromethyl)sulfanyl]phenyl}quinoxaline-6-carboxamide] | 1 | 78 | 100 to 500 |  |
| Cc1cc(-c2nc3cc(C(=O)NCCCc4ncc[nH]4)ccc3nc2-c2ccc(F)cc2)c(C)s1 [Compound I-422, 3-(2,5-dimethyl-3-thienyl)-2-(4-fluorophenyl)-N-[3-(1H-imidazol-2-yl)propyl]quinoxaline-6-carboxamide] | 3 | 92 | < 100 |  |
| CN1CCCC(Oc2nc3ccc(C(=O)NCCCc4ncc[nH]4)cc3nc2-c2ccc(F)cc2)C1 (stereo not drawn) [Compound I-423, 3-(4-fluorophenyl)-N-[3-(1H-imidazol-2-yl)propyl]-2-[(1-methylpiperidin-3-yl)oxy]quinoxaline-6-carboxamide] | 2 | 88 | 100 to 500 |  |
| CC(C)Oc1nc2ccc(C(=O)NCCc3cncn3C)cc2nc1-c1ccc(F)cc1 [Compound I-424, 3-(4-fluorophenyl)-2-isopropoxy-N-[2-(1-methyl-1H-imidazol-5-yl)ethyl]quinoxaline-6-carboxamide] | 1 | 76 | 100 to 500 |  |
| C#Cc1cccc(-c2nc3cc(C(=O)NCCCc4ncc[nH]4)ccc3nc2-c2ccc(F)cc2)c1 [Compound I-425, 3-(3-ethynylphenyl)-2-(4-fluorophenyl)-N-[3-(1H-imidazol-2-yl)propyl]quinoxaline-6-carboxamide] | 3 | 87 | 100 to 500 |  |
| COc1cc(-c2nc3cc(C(=O)NCc4ccc5nccn5c4)ccc3nc2OC(C)C)ccc1F [Compound I-426, 3-(4-fluoro-3-methoxyphenyl)-N-(imidazo[1,2-a]pyridin-6-ylmethyl)-2-isopropoxyquinoxaline-6-carboxamide] | 0 | 99 | < 100 |  |
| COC1CC(Oc2nc3ccc(C(=O)NCCCc4ncc[nH]4)cc3nc2-c2ccc(F)cc2)C1 (stereo not drawn) [Compound I-427, 3-(4-fluorophenyl)-N-[3-(1H-imidazol-2-yl)propyl]-2-[(3-methoxycyclobutyl)oxy]quinoxaline-6-carboxamide] | 2 | 99 | < 100 |  |
| Cc1cc(C)n(-c2nc3ccc(C(=O)NCCCc4ncc[nH]4)cc3nc2-c2ccc(F)cc2)n1 [Compound I-428, 2-(3,5-dimethyl-1H-pyrazol-1-yl)-3-(4-fluorophenyl)-N-[3-(1H-imidazol-2-yl)propyl]quinoxaline-6-carboxamide] | 2 | 71 | 100 to 500 |  |
| O=C(NCCCc1ncc[nH]1)c1ccc2nc(-c3ccc(F)cc3)c(-c3cn[nH]c3)nc2c1 [Compound I-429, 2-(4-fluorophenyl)-N-[3-(1H-imidazol-2-yl)propyl]-3-(1H-pyrazol-4-yl)quinoxaline-6-carboxamide] | 76 | 90 | 100 to 500 |  |
| O=C(NCCCc1ncc[nH]1)c1ccc2nc(OC3CCCNC3)c(-c3ccc(F)cc3)nc2c1 (stereo not drawn) [Compound I-430, 3-(4-fluorophenyl)-N-[3-(1H-imidazol-2-yl)propyl]-2-(piperidin-3-yloxy)quinoxaline-6-carboxamide] | 3 | 98 | < 100 |  |
| O=C(NCCCc1ncc[nH]1)c1ccc2nc(-c3ccc(F)cc3)c(-c3ccc(Cl)c(F)c3)nc2c1 [Compound I-431, 3-(4-chloro-3-fluorophenyl)-2-(4-fluorophenyl)-N-[3-(1H-imidazol-2-yl)propyl]quinoxaline-6-carboxamide] | 2 | 90 | 100 to 500 |  |
| O=C(NCCCc1ncc[nH]1)c1ccc2nc(-c3ccc(F)cc3)c(-c3cc(OC(F)(F)F)ccc3Cl)nc2c1 [Compound I-432, 3-[2-chloro-5-(trifluoromethoxy)phenyl]-2-(4-fluorophenyl)-N-[3-(1H-imidazol-2-yl)propyl]quinoxaline-6-carboxamide] | 2 | 79 | 100 to 500 |  |
| Cc1ccc(-c2nc3cc(C(=O)NCCCc4ncc[nH]4)ccc3nc2-c2ccc(F)cc2)cc1C [Compound I-433, 3-(3,4-dimethylphenyl)-2-(4-fluorophenyl)-N-[3-(1H-imidazol-2-yl)propyl]quinoxaline-6-carboxamide] | 3 | 79 | 100 to 500 |  |
| O=C(NCCCc1ncc[nH]1)c1ccc2nc(-n3cccn3)c(-c3ccc(F)cc3)nc2c1 [Compound I-434, 3-(4-fluorophenyl)-N-[3-(1H-imidazol-2-yl)propyl]-2-(1H-pyrazol-1-yl)quinoxaline-6-carboxamide] | 3 | 76 | 100 to 500 |  |
| CC(C)Oc1nc2ccc(C(=O)NCCCc3ncc[nH]3)cc2nc1-c1ccc(F)c(Cl)c1 [Compound I-435, 3-(3-chloro-4-fluorophenyl)-N-[3-(1H-imidazol-2-yl)propyl]-2-isopropoxyquinoxaline-6-carboxamide] | 0 | 93 | < 100 |  |
| Nc1ccc(CCCNC(=O)c2ccc3nc(N4CCCCC4)c(-c4ccc(F)cc4)nc3c2)cn1 [Compound I-436, N-[3-(6-aminopyridin-3-yl)propyl]-3-(4-fluorophenyl)-2-(piperidin-1-yl)quinoxaline-6-carboxamide] | 2 | 83 | 100 to 500 |  |
| CCOc1ccc(Cl)c(-c2nc3cc(C(=O)NCCCc4ncc[nH]4)ccc3nc2-c2ccc(F)cc2)c1 [Compound I-437, 3-(2-chloro-5-ethoxyphenyl)-2-(4-fluorophenyl)-N-[3-(1H-imidazol-2-yl)propyl]quinoxaline-6-carboxamide] | 3 | 71 | 100 to 500 |  |
| O=C(NCCCc1ncc[nH]1)c1ccc2nc(OCC3CCCO3)c(-c3ccc(F)cc3)nc2c1 (stereo not drawn) [Compound I-438, 3-(4-fluorophenyl)-N-[3-(1H-imidazol-2-yl)propyl]-2-(tetrahydrofuran-2-ylmethoxy)quinoxaline-6-carboxamide] | 2 | 99 | < 100 |  |
| O=C(NCCCc1ncc[nH]1)c1ccc2nc(OCc3ccccc3)c(-c3ccc(F)cc3)nc2c1 [Compound I-439, 2-(benzyloxy)-3-(4-fluorophenyl)-N-[3-(1H-imidazol-2-yl)propyl]quinoxaline-6-carboxamide] | 3 | 93 | < 100 |  |
| CCOc1nc2ccc(C(=O)NCCCc3ncc[nH]3)cc2nc1-c1ccc(F)cc1 [Compound I-440, 2-ethoxy-3-(4-fluorophenyl)-N-[3-(1H-imidazol-2-yl)propyl]quinoxaline-6-carboxamide] | 3 | 94 | < 100 |  |
| O=C(NCCCc1cnccn1)c1ccc2nc(N3CCCCC3)c(-c3ccc(F)cc3)nc2c1 [Compound I-441, 3-(4-fluorophenyl)-2-(piperidin-1-yl)-N-[3-(pyrazin-2-yl)propyl]quinoxaline-6-carboxamide] | > 99 | 50 | 500 to 1000 |  |
| O=C(NCCCc1ncc[nH]1)c1ccc2nc(OCCc3cn[nH]c3)c(-c3ccc(F)cc3)nc2c1 [Compound I-442, 3-(4-fluorophenyl)-N-[3-(1H-imidazol-2-yl)propyl]-2-[2-(1H-pyrazol-4-yl)ethoxy]quinoxaline-6-carboxamide] | 3 | > 99 | < 100 |  |
| O=C(NCCc1ncc[nH]1)c1ccc2nc(-c3ccc(F)cc3)c(-c3ccc(Cl)s3)nc2c1 [Compound I-443, N-(2-(1H-imidazol-2-yl)ethyl)-3-(5-chlorothiophen-2-yl)-2-(4-fluorophenyl)quinoxaline-6-carboxamide] | 11 |  | 100 to 500 | 57 |
| CC(C)c1nc2ccc(C(=O)NCCCc3ncc[nH]3)cc2nc1-c1ccc(F)cc1 [Compound I-444, 3-(4-fluorophenyl)-N-[3-(1H-imidazol-2-yl)propyl]-2-isopropylquinoxaline-6-carboxamide] | 1 | 77 | 100 to 500 |  |
| Cc1ccc(C(F)(F)F)cc1-c1nc2cc(C(=O)NCCCc3ncc[nH]3)ccc2nc1-c1ccc(F)cc1 [Compound I-445, 2-(4-fluorophenyl)-N-[3-(1H-imidazol-2-yl)propyl]-3-[2-methyl-5-(trifluoromethyl)phenyl]quinoxaline-6-carboxamide] | 2 | 91 | < 100 |  |
